Experimental data reported in paper PMC4774911, “Biochemical Screening of Five Protein Kinases from Plasmodium falciparum against 14,000 Cell-Active Compounds” (PLoS ONE, 2016).
Read-outs that look alike come from different tables or passages of the source.

Experiments:
[1] = biological target: T1, Plasmodium falciparum calcium-dependent protein kinase 1 (CDPK1) (Plasmodium falciparum, UniProt P62344); test: CDPK1 Kinase-Glo ATP-consumption screen and dose-response; format: biochemical; conditions: hits below 1 uM; read-out: CDPK1 IC50
T1 construct: 6-Histidine (N); made in house
How it was run: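 Single-point testing used 1 μM final compound, then dose-response, against CDPK4 and CDPK1 with Syntide-2 (40 μM) as substrate. After 90 min, reactions were halted by 5 mM EGTA, and kinase activity was inferred from depleted ATP via Kinase-Glo luminescence.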

[2] = biological target: T2, Plasmodium falciparum protein kinase 6 (PK6) (Plasmodium falciparum, UniProt Q8IDW1); test: biochemical; conditions: hits below 1 uM; read-out: PK6 IC50
T2 construct: 6-Histidine (N); made in house
T2 sequence (Q8IDW1 1-305): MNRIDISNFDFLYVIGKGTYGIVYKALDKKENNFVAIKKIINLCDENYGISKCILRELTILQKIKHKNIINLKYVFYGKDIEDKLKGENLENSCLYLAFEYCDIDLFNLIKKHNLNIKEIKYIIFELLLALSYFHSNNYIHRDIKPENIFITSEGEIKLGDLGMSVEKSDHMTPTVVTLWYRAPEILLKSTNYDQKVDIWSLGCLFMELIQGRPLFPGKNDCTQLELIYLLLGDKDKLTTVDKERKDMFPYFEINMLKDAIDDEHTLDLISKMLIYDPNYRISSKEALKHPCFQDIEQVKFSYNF

HepG2 cells = conditions: cited from earlier work
P. falciparum 3D7 cells = conditions: 3D7, cited from earlier work
DD2 [3] = tested on: DD2; parameters: method as in downloaded from ChEMBL; conditions: ref downloaded from ChEMBL; cited from earlier work
3D7 PFLDH [4] = tested on: 3D7 PFLDH; parameters: method as in downloaded from ChEMBL; conditions: ref downloaded from ChEMBL; cited from earlier work
[5] = biological target: T3, Plasmodium falciparum calcium-dependent protein kinase 4 (CDPK4) (Plasmodium falciparum, UniProt Q8IBS5); test: CDPK4 Kinase-Glo ATP-consumption screen and dose-response; format: biochemical; conditions: hits below 1 uM
T3 construct: 6-Histidine (N); made in house
T3 sequence (Q8IBS5 1-528): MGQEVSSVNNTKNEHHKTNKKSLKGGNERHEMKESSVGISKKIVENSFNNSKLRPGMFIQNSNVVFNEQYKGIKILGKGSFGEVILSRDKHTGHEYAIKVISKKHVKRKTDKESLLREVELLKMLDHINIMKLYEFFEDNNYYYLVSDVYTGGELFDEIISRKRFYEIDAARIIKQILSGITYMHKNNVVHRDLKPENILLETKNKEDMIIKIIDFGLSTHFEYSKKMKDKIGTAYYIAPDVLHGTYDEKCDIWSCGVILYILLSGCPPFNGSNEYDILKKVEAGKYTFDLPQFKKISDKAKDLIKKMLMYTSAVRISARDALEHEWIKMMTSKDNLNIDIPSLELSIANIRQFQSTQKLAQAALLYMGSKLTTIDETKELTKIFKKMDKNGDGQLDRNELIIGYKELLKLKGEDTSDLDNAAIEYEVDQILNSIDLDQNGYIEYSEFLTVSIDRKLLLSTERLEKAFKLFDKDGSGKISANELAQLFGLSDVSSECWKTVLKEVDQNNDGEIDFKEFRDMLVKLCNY
Description: Biochemical assays were performed in white 384-well plates (Nunc). Liquid transfers were done manually with 8-channel pipets. Compounds were initially tested in a single-point screen (final concentration 1 μM). […] The catalytic activity of each kinase was considered proportional to ATP consumed, as determined from measurements of residual [ATP] with the luciferase-based reagent Kinase-Glo (Promega) following incubation. Luminescence (proportional to residual [ATP]) was measured on the plate readers FLx800 (BioTek Instruments, Winooski, VT, USA) and MicroBeta^2 (PerkinElmer, Waltham, MA, USA). Incubation times were chosen to ensure near-complete ATP depletion in the absence of inhibition, thus maximizing the difference in signal between inhibited and uninhibited wells.
40 μM Syntide-2 was used as a substrate; BKI-1 [14] was used as a control inhibitor, while reaction mixtures lacking Syntide-2 were included as an additional negative control. Incubation time was 90 minutes. Reactions were terminated by adding excess EGTA (5 mM), which sequesters Ca^2+ and halts calcium-dependent kinase activity.

PKG = PKG (Plasmodium falciparum, UniProt Q8I719); test: PKG IC50 (supplementary data file); format: biochemical
Source text: Supplement pone.0149996.s003.xls, sheet "combined_1_sorted"

DD2 [6] = tested on: DD2; parameters: method as in F.J. Gamo et al., Nature 2010; conditions: downloaded from ChEMBL, ref F.J. Gamo et al., Nature 2010; cited from earlier work
3D7 PFLDH [7] = tested on: 3D7 PFLDH; parameters: method as in F.J. Gamo et al., Nature 2010; concentration or dose not given beside the values; conditions: downloaded from ChEMBL, ref F.J. Gamo et al., Nature 2010; cited from earlier work
[8] = HEPG2, ref downloaded from ChEMBL
[9] = HepG2, downloaded from ChEMBL, ref F.J. Gamo et al., Nature 2010
[10] = downloaded from ChEMBL, ref F.J. Gamo et al., Nature 2010

Sequence of PKG (Q8I719 whole entry): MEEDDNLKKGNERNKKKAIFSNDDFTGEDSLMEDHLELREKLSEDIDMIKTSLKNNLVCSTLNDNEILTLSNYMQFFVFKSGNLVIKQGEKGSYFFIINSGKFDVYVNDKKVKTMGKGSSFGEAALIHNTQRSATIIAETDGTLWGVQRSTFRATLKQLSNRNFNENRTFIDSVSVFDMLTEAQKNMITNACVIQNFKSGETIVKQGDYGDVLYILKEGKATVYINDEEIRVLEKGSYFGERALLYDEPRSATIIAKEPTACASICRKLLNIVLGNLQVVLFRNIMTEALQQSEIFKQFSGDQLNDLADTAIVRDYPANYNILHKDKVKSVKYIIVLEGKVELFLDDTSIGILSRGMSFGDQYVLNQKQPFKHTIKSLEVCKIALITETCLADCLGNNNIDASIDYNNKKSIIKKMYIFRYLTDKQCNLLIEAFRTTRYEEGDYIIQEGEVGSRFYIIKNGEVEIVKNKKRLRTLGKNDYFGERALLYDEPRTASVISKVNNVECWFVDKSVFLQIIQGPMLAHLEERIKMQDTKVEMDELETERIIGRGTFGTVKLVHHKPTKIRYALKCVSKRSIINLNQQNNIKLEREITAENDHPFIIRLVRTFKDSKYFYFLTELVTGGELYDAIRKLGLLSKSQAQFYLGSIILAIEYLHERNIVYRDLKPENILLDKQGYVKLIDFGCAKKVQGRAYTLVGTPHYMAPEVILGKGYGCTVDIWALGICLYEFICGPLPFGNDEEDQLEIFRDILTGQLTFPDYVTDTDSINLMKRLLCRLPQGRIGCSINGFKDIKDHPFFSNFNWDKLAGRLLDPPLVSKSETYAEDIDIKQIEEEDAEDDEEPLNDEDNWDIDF
T1 sequence (P62344 whole entry): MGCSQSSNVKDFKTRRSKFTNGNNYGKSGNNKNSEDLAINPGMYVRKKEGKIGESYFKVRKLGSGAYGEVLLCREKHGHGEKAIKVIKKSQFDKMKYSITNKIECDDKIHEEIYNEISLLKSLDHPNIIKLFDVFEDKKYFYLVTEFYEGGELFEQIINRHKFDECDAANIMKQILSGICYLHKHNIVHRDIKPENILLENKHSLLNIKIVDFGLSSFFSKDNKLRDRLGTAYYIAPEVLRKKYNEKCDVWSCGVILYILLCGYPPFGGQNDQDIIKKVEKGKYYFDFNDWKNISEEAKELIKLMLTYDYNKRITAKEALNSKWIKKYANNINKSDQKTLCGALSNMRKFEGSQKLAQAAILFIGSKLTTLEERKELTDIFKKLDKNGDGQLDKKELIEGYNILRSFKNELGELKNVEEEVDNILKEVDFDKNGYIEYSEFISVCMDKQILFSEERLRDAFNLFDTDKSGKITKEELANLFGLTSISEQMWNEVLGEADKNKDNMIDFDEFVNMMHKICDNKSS

| SMILES | IC50 [1] [nM] | IC50 [2] [nM] | PCT_INHIB_HEPG2 (HepG2 cells; [8]) | PCT_IHB_3D7 (P. falciparum 3D7 cells; ref downloaded from ChEMBL) | pXC50_3D7 (P. falciparum 3D7 cells; ref downloaded from ChEMBL) | PCT_INHB_DD2 (DD2 [3]) | PCT_INHIB_3D7_PFLDH (3D7 PFLDH [4]) | IC50 [5] [nM] | IC50 (PKG) [nM] | PCT_INHIB_HEPG2 (HepG2 cells; [9]) [%] | PCT_IHB_3D7 (P. falciparum 3D7 cells; [10]) [%] | pXC50_3D7 (P. falciparum 3D7 cells; [10]) | PCT_INHB_DD2 (DD2 [6]) [%] | PCT_INHIB_3D7_PFLDH (3D7 PFLDH [7]) [%] |
| --- | --- | --- | --- | --- | --- | --- | --- | --- | --- | --- | --- | --- | --- | --- |
| NCCNS(=O)(=O)c1ccc(-c2ccnc3[nH]c(-c4ccncc4)cc23)cc1.O=C(O)C(F)(F)F [TCMDC-133364] | 422 | 207 | 0 | 96 | 6.076 | 95 | 3 | – | – | – | – | – | – | – |
| Cn1cc(-c2ccnc3[nH]c(-c4cccc(CNC5CCC(O)CC5)c4)cc23)cn1.O=C(O)C(F)(F)F (centres unmarked) [TCMDC-133805] | 46 | 177 | 48 | 95 | 6.044 | 82 | 2 | – | – | – | – | – | – | – |
| CN(C)Cc1cccc(-c2cc3c(-c4cnn(C)c4)c(Cl)cnc3[nH]2)c1 [TCMDC-134147] | 402 | 128 | 75 | 96 | 6.043 | 21 | 0 | – | – | – | – | – | – | – |
| Cc1cccc(Nc2nc(N[C@@H]3CCCNC3)nc3cc[nH]c(=O)c23)c1.O=C(O)C(F)(F)F [TCMDC-134835] | 23 | – | – | – | – | – | – | 76 | 422 | 55 | 99 | 6.166 | 98 | 1 |
| Cc1cccc(Nc2nc(NCCCCN)nc3cc[nH]c(=O)c23)c1.O=C(O)C(F)(F)F [TCMDC-134946] | 566 | – | – | – | – | – | – | 166 | 1580 | 34 | 98 | 6.135 | 97 | 0 |
| O=C(O)C(F)(F)F.O=c1[nH]ccc2nc(N[C@@H]3CCNC3)nc(Nc3cc(Cl)cc(Cl)c3)c12 [TCMDC-135052] | 33 | – | – | – | – | – | – | 446 | 486 | 99 | 100 | 6.132 | 99 | 0 |
| NCCCNc1nc(Nc2cccc(C(N)=O)c2)c2c(=O)[nH]ccc2n1.O=C(O)C(F)(F)F [TCMDC-135053] | 750 | – | – | – | – | – | – | 967 | 7330 | 9 | 99 | 6.226 | 49 | 0 |
| NS(=O)(=O)c1cccc(Nc2nc(N[C@@H]3CCNC3)nc3cc[nH]c(=O)c23)c1.O=C(O)C(F)(F)F [TCMDC-135057] | 83 | – | – | – | – | – | – | 135 | 1850 | 7 | 99 | 6.027 | 98 | 0 |
| CCn1c(-c2nonc2N)nc2c(-c3cc4ccccc4s3)ncc(C(=O)N3CCC(N)C3)c21.O=C(O)C(F)(F)F (centres unmarked) [TCMDC-135281] | – | – | – | – | – | – | – | 89 | 6940 | 99 | 98 | 6.06 | 66 | 5 |
